Results as given in paper PMC10535741, “Styrylpyridinium Derivatives for Fluorescent Cell Imaging” (Pharmaceuticals, 2023).
“And” between values parts separate entries of the source, which are not always exact repeats. Identical values can stand only once. Like-named read-outs stand apart in the source and are kept apart here.

Columns and labels:
[1] = Excitation/emission fluorescence spectra; assay type: physicochemical; details: for Stokes' shift, nm: DMSO; for fluor. max. λ, nm / excitation λ, nm: DMSO solution; for excitation λ, nm: excitation giving maximum fluorescence intensity
Procedure: The resonance structures of compounds 6d,e (Figure 2a) show a possibly intramolecular charge transfer between the julolidine moiety and the pyridinium unit. The normalised fluorescence spectra of the tested compounds 6a–e and 7a,b in DMSO solution (Figure 2c) and the fluorescence spectra of compound 6e in various media (Figure 2d) were measured using a spectrophotometer multiplate reader (Infinite M1000). The UV/Vis spectra in DMSO solution of compounds 6a–g (Figure 2b) were reordered with a UV/Vis spectrophotometer, and the fluorescence spectra of compound 6e in EtOH–glycerol mixtures (Figure 2e) were collected with a Spectrofluorometer FS5.
According to the calculations, the excitation occurs at 542 nm and the emission at 765 nm. The obtained theoretical calculation data are in good agreement with the experimental data, where the excitation occurs at 530 nm and the emission at 760 nm (Table 3).
We have also tested whether the characteristics of compound 6e depended upon the viscosity of its surrounding environment. […] It was underlined that water media reduced the fluorescence quantum yields and the lifetime of organic fluorophores by up to threefold. […] In pure glycerol, the maximum value of fluorescence was detected at 645 nm. As the amount of glycerol decreased, the fluorescence intensity of the sample decreased as well. The second fluorescence maximum at 720 nm was observed when the amount of ethanol had reached approximately 50% in the composition.
A concentration of 10 mM stock solution of compounds 6 or 7 was prepared by dissolving the compounds in DMSO. Working solutions were prepared by diluting the 10 mM stock solution of compounds with different solvents to reach the final concentration for the samples: DMSO (compound concentration 0.1 mM); for compound 6e: in glycerol (concentration 0.01 mM), in water (concentration 0.5 mM), in 0.1 M HCl (concentration 0.5 mM), in 0.1 M NaOH (concentration 0.5 mM), or in 1% DMSO/99% water (concentration […]). The fluorescence spectra were measured using a spectrophotometer multiplate reader (Tecan Infinite M1000; Tecan Austria GmbH, Salzburg, Austria). For excitation/emission fluorescence spectra measurements, the following measurement parameters were applied: excitation wavelength from 260 nm to 690 nm with a 10 nm sampling interval and emission wavelength from 300 nm to 840 nm with a 10 nm sampling interval. The fluorescence spectra of compound 6e (concentration 5 mM) in EtOH–glycerol mixtures were measured with an Edinburgh Instruments FS5 Spectrofluorometer (Edinburgh Instruments Ltd., Kirkton Campus, UK). The data were analysed using Microsoft Excel software version 2308.

[2] = tested on: HT-1080 (human connective tissue fibrosarcoma); experiment: MTT cytotoxicity assay, HT-1080; assay type: cell-based; details: for IC50: Homo sapiens, read-out: IC50 (µg/mL) HT-1080
Procedure: (§1) The evaluation of the in vitro cytotoxicity (IC50, half maximal inhibitory concentration) of the abovementioned compounds and their structural derivatives was assessed using the standard colorimetric 3-(4,5-dimethylthiazol-2-yl)-2,5-diphenyltetrazolium bromide (MTT) assay on two monolayer tumour cell lines, namely HT-1080 (human connective tissue fibrosarcoma) and MH-22A (mouse hepatocarcinoma). Additionally, the impact of the compound on non-cancerous “normal” cells—mouse fibroblasts (NIH3T3)—was estimated in order to measure the basal toxicity (LD50, median lethal dose). The obtained results were used for investigation of the structure–activity relationships and exploration of the effect of substituents on cellular response and toxicity. The estimated LD50 gives information regarding the compound properties and could potentially be used to select promising compounds by providing a starting dose for in vivo experiments.
(§2) The HT-1080 (human connective tissue fibrosarcoma, ATCC® CCL-121™), MH-22A (mouse hepatocarcinoma, ECACC Cat. No. 96121721), A-549 (human lung carcinoma, ATCC® CCL-185™), NIH3T3 (Swiss Albino mouse embryo fibroblast, ECACC Cat. No. 93061524), Hek293 (human embryonic kidney, ATCC® CRL-1573™), BHK-21 (Syrian hamster kidney, ATCC® CCL-10™), A-431 (human epidermoid carcinoma, ATCC® CRL-1555™), Saos-2 (human osteosarcoma, ATCC® HTB-85™), HeLa (human epitheloid cervix carcinoma, ATCC® CCL-2™), U937 (human myeloid leukaemia, ATCC® CRL-1593.2™), C6 (rat glioma, ATCC® CCL-107™), and B16-F10 (murine melanoma, ATCC® CRL-6475™) cell lines were obtained from the American Type Culture Collection (ATCC) and European Collection of Authenticated Cell Cultures (ECACC).
(§3) HT-1080, MH-22A, A-549, NIH3T3, BHK-21, A-431, HeLa, and B16-F10 cells were cultured in Dulbecco’s Modified Eagle’s Medium (DMEM) with 2 mM glutamine and 10% foetal bovine serum (FBS). Hek293 cells were cultured in Eagle’s Minimum Essential Medium with 10% foetal bovine serum. U937 cells were cultured in RPMI-1640 Medium with 2 mM glutamine and 10% foetal bovine serum. C6 cells were cultured in Ham’s F12 Medium with 2 mM glutamine and 10% foetal bovine serum. Saos-2 cells were cultured in McCoy’s 5a Medium with 2 mM glutamine and 10% foetal bovine serum. The cells were incubated at 37 °C with 5% CO2, 95% air, and complete humidity. Once ~90% confluence was reached, they were detached using 0.05% trypsin/EDTA and counted. The cells were plated at optimally determined densities for the logarithmic phase of growth. These cells were then suspended at a concentration of 4000 cells/well for HT-1080, MH-22A, A-549, NIH3T3, BHK-21, A-431, HeLa, B16-F10, Hek293, and Saos-2 cells and a concentration of 9000 cells/well for U937, C6, Hek293, and GM08402 cells and added onto a 96-well plate. For background absorption, some wells remained cell free, i.e., as a blank control. Cells were incubated for 72 h at 37 °C and 5% CO2 where they were exposed to a media containing serial dilutions of the investigated compounds (n = 3). Cell viability was measured using the 3-(4,5-dimethylthiazol-2-yl)-2,5-diphenyl-tetrazolium bromide (MTT) assay. In brief, after incubating with compounds, the culture medium was removed and fresh medium with 0.2 mg/mL MTT was added to each well of the plate. After incubation (3 h, 37 °C, 5% CO2), the medium with MTT solution was removed and replaced with 200 µL DMSO and 25 µL Sorenson’s glycine buffer (glycine 0.1 M, NaCl 0.1 M, pH: 10.5 with 0.1 M NaOH). The plate was shaken for 15 min at room temperature and the optical density (OD) of the wells was determined using a multichannel spectrophotometer (Thermo Scientific Multiskan EX) at 540 nm. The quantity of the control cells was taken in calculations as 100%. The IC50 value was calculated using the program Graph Pad Prism® 3.0.

[3] = tested on: MH-22A (mouse hepatocarcinoma); experiment: MTT cytotoxicity assay, MH-22A; assay type: cell-based; details: for IC50: Mus musculus, read-out: IC50 (µg/mL) MH-22A
Procedure: as §1, §2, §3

Compound	fluor. max. λ, nm [1]	excitation λ, nm [1]	IC50 ([2]; HT-1080, 72 h treatment, MTT)	IC50 ([3]; 72 h treatment, MTT)	also measured
CCCCCCCCCCCCCCCC[n+]1ccc(C=CC=Cc2cc3c4c(c2)CCCN4CCC3)cc1.[Br-] [Compound 6e, 1-hexadecyl-4-(4-(2,3,6,7-tetrahydro-1H,5H-pyrido[3,2,1-ij]quinolin-9-yl)buta-1,3-dien-1-yl)pyridin-1-ium bromide]	760 nm and ~ 760 nm	530 nm	1 ± 0.03 µg/mL	0.4 ± 0.06 µg/mL	Stokes' shift, nm [1]: 240 nm; second fluorescence maximum ([1]; EtOH-glycerol mixture, ethanol approximately 50%): 720 nm; fluorescence emission maximum wavelength ([1]; pure glycerol): 645 nm; times higher cytotoxicity towards HT-1080 than 6d ([2]; 6e versus 6d): 1.4 times; times more toxic to MH-22A than against non-cancerous Hek-293 ([3]; selectivity MH-22A versus Hek-293): 3.75 times; times more cytotoxic to MH-22A than against non-cancerous NIH3T3 ([3]; selectivity MH-22A versus NIH3T3): eight
CCCCCCCCCCCCCCCC[n+]1ccc(C=CC=Cc2ccc(OC)cc2)cc1.[Br-] [Compound 6c, 1-hexadecyl-4-(4-(4-methoxyphenyl)buta-1,3-dien-1-yl)pyridin-1-ium bromide]	760 nm and ~ 760 nm	530 nm	0.2 ± 0.04 µg/mL	0.13 ± 0.03 µg/mL	Stokes' shift, nm [1]: 352 nm
CCCCCCCCCCCC[n+]1ccc(C=Cc2cc3c4c(c2)CCCN4CCC3)cc1.[Br-] [Compound 6d, 1-dodecyl-4-(2-(2,3,6,7-tetrahydro-1H,5H-pyrido[3,2,1-ij]quinolin-9-yl)vinyl)pyridin-1-ium bromide]	660 nm	530 nm	1.4 ± 0.3 µg/mL	0.05 ± 0.003 µg/mL	times higher cytotoxicity towards MH-22A than compound 7a ([3]; 6d versus 7a): 80 times
C(C=Cc1cc2c3c(c1)CCCN3CCC2)=Cc1cc[n+](CCC[n+]2ccc(C=CC=Cc3cc4c5c(c3)CCCN5CCC4)cc2)cc1.[Br-].[Br-] [Compound 7b, 1,1′-(propane-1,3-diyl)bis(4-(4-(2,3,6,7-tetrahydro-1H,5H-pyrido[3,2,1-ij]quinolin-9-yl)buta-1,3-dien-1-yl)pyridin-1-ium) dibromide]	770 nm and ~ 760 nm	530 nm	6 ± 0.2 µg/mL	5 ± 0.6 µg/mL	–
CCCCCCCCCCCCCCCC[n+]1ccc(C=Cc2cc(OC)c(OC)c(OC)c2)cc1.[Br-] [Compound 6b]	580 nm	380 nm	–	–	IC50 (µg/mL) HT-1080 ([2]; 72 h treatment, MTT): 0.18 ± 0.02 µg/mL; IC50 (µg/mL) MH-22A ([3]; 72 h treatment, MTT): 1.08 ± 0.06 µg/mL
C(=C\c1cc2c3c(c1)CCCN3CCC2)/c1cc[n+](CCC[n+]2ccc(/C=C/c3cc4c5c(c3)CCCN5CCC4)cc2)cc1 [Compound 7a]	660 nm	530 nm	–	–	IC50 ([2]; HT-1080, 72 h): 2 ± 0.3 µg/mL; IC50 ([3]; 72 h): 4 ± 0.3 µg/mL
CCCCCCCCCCCC[n+]1ccc(C=Cc2cc(OC)c(OC)c(OC)c2)cc1.[Br-] [Compound 6a, 4-(3,4,5-trimethoxystyryl)-N-dodecylpyridinium bromide]	580 nm	380 nm	0.22 ± 0.06 µg/mL	0.45 ± 0.08 µg/mL	times more toxic than 6b in MH-22A ([3]; 6a versus 6b): 2.4 times; times lower cytotoxicity of 6a compared with 6d, MH-22A ([3]; ratio of IC50 values): 8.5 times
